From patent US9562060B2, “Heterocyclic pyridone compound, and intermediate, preparation method and use thereof” (SHANGHAI HUILUN LIFE SCIENCE & TECHNOLOGY CO., LTD, priority 2011, dated 2017) come the findings set out here.

Molecules are shown by their SMILES. Where two headings read alike, the source gives them in different places.

The test system of test [1] is human malignant glioma U87-MG xenografts. Briefly: Efficacy on human malignant glioma U87-MG xenografts in nude mice. It is filed as in vivo, BALB/cA-nude nude mice. The settings on record: 100 mg/kg orally once per day for 16 days. The method, then: The human malignant glioma U87-MG is purchased from ATCC (American Type Culture Collection), America.
BALB/cA-nude nude mice (♀, 6-7 weeks old) are purchased from Shanghai SLAC Laboratory Animal Co. Ltd. Breeding environment: SPF grade.
In vitro-cultured malignant glioma U87-MG cells are inoculated subcutaneously in nude mice, and after the tumor grows to a size of 100 to 250 mm^3, the animals are randomly divided into groups (d0). The dose of the test agent is 100 mg/kg, and the agent is orally administered once per day for continuous 16 days. The volume of the tumor is measured two to three times per week, the mice are weighed, and the data is recorded. The tumor volume (V) is calculated according to the equation: V=1/2×a×b^2, where a and b respectively represent length and width.
The antineoplastic efficacy is evaluated according to tumor inhibition rate, and the tumor inhibition rate is calculated according to the equation below: Tumor inhibition rate=1−(T−T0)/(C−C0), • where T and C are respectively tumor volumes of the test agent group mice and the blank group mice at the end of the experiment; and T0 and C0 are tumor volumes at the start of the experiment.

In the next test the target is T1, c-Met kinase (Homo sapiens, UniProt P08581).
T1 construct: purchased Invitrogen PV3143
T1 sequence (P08581 25-1390): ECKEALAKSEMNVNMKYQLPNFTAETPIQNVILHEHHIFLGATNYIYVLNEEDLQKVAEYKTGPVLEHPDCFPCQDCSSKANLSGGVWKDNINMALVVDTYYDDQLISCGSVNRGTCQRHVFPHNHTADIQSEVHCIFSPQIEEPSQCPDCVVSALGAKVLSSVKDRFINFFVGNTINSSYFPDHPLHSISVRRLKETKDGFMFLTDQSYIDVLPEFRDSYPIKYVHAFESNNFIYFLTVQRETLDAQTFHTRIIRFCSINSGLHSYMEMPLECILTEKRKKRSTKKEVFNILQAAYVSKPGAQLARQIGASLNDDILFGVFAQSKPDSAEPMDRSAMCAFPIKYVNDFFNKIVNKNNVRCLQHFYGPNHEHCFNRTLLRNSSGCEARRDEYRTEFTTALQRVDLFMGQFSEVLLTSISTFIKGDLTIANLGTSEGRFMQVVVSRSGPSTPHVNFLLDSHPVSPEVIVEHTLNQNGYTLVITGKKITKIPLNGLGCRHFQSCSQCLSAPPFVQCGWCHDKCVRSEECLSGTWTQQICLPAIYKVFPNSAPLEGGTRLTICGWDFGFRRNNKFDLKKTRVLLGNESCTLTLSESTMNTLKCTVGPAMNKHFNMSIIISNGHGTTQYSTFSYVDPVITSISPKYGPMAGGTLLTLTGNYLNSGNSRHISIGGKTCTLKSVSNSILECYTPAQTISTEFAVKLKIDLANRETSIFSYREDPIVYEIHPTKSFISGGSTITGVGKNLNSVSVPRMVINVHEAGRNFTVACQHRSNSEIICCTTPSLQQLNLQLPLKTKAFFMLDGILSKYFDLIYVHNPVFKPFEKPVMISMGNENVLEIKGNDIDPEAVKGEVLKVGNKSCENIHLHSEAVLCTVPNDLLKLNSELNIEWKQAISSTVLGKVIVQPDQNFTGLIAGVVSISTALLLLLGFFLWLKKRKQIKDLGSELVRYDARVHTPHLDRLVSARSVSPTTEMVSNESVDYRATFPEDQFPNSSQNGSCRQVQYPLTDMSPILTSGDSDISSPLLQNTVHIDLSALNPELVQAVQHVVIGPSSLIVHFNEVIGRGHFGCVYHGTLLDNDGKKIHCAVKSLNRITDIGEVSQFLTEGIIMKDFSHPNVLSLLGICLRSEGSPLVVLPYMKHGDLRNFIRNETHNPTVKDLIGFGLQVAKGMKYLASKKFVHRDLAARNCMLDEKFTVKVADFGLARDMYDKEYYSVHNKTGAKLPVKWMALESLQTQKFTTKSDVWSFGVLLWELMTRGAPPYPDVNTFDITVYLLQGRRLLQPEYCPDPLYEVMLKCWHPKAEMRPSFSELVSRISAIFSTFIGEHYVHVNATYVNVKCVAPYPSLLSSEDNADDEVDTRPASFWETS
Briefly: Inhibitory activity of compound to c-Met kinases (Z'-LYTE kinase assay kit). It is filed as biochemical. The settings on record: Tyr 6 substrate peptide, read-out: Strength of activity (inhibition on c-Met kinase, IC50). The protocol:
The inhibitory activity of the compound to c-Met kinases in vitro is determined through the following method.
The method described below can be used to determine the inhibiting capacity of the compound of the present invention on the c-Met kinase activity, and the inhibiting capacity is represented by IC50. The half inhibitory concentration IC50 (a concentration of the compound for inhibiting the enzyme activity to 50%) of the compound is obtained by: mixing and reacting a certain amount of kinase with a specific substrate and different concentrations of test compound, and then labeling the substrate with an anti-phosphotyrosine antibody and a […], and finally quantitatively determining the c-Met kinase activity through a time-resolved fluorescence method.
The specific experiment is implemented by using a Z′-LYTE kinase assay kit (Invitrogen, item PV4122). First, the test compound is diluted into 8 different concentrations from 100 μM at an interval of 1:5 with an ATP solution (Invitrogen, item PV3227); 5 μL 2×c-Met (Invitrogen, item PV3143) and 2×Z′-LYTE Tyr 6 substrate peptide are respectively taken up, and added to a 384-well microtiter plate, 5 μL diluted different concentrations of test compound are added in sequence, and the lid is closed. The microtiter plate is incubated for 60 min at room temperature (20° C. to 25° C.); and then 5 μL […] is added, and the lid is closed. The microtiter plate is incubated for 60 min at room temperature (20° C. to 25° C.); and then 5 μL termination reagent is added to the reaction well, to terminate the reaction. Finally, the fluorescence intensity (OD400) of each well is determined in a fluorescence analyzer (excitation wavelength: 400 nm). The inhibition rate is calculated, and the half inhibitory concentration (IC50) of the compound is calculated according to the inhibition rates of different concentrations.
For a negative control group, except that test compound (replaced by 5 μL ATP solution) is not added, all the other reagents are added. In addition, an enzyme-free control group (that is, blank group) is set.

Test [2] relates to Human gastric cancer cell SNU-5. Briefly: Inhibition of in vitro proliferation of human gastric cancer cell SNU-5 (SRB). The note with it: SNU-5 cells, 72-hr agent treatment, read-out: Strength of activity (inhibition on SNU-5, IC50). It is filed as cell-based. The method, then: Human gastric cancer cells SNU-5 are cultured in an IMDM medium containing 20% fetal bovine serum, and the culture conditions are 37° C. and 5% CO2. Tumor cells are inoculated in a 96-well plate, and after 24-hr sidewall growth, 9 different concentrations of (1 to 30000 nM) an agent are added, after 72-hr agent treatment, the medium is discarded, the cells are fixed by cold trichloroacetic acid, and then dyed with a sulforhodamine B (SRB) solution. Unbound SRB is washed off, and SRB bound with protein was dissolved with Tris, the OD is determined at a wavelength of 510 nm by a microplate reader, and the cell growth inhibition rate is calculated according to the following equation: Inhibition rate=(OD of control well-OD of administered well)/OD of control well×100%
According to the inhibition rates of different concentrations, the half inhibitory concentration IC50 is calculated by using a Logit method.

What is called IC50 is the concentration that inhibits the measured activity by half. Take `Nc1cc(Oc2ccc(NC(=O)c3cc4ncsc4n(-c4ccc(F)cc4)c3=O)cc2F)ccn1` [Embodiment 1]: in test [1], the “Tumor Inhibition Rate (%)” value was found to be 62%. Moreover, the IC50 at c-Met kinase was 10 to 100 nM; in test [2] (Homo sapiens) it was under 100 nM.
With `Nc1nccc(Oc2ccc(NC(=O)c3cc4ncsc4n(-c4ccc(F)cc4)c3=O)cc2F)c1Cl` [Embodiment 2], the “Tumor Inhibition Rate (%)” value in test [1] amounted to 16%. The figures for the IC50 (on c-Met kinase; in test [2] (Homo sapiens)) were under 10 nM and 100 to 500 nM, respectively.
For `COc1ccc2c(Oc3ccc(NC(=O)c4cc5ncsc5n(-c5ccc(F)cc5)c4=O)cc3F)ccnc2c1` [Embodiment 3] the same measures were 91%, 10 to 100 nM and 100 to 500 nM.
With `O=C(Nc1ccc(Oc2ccnc3[nH]ccc23)c(F)c1)c1cc2ncsc2n(-c2ccc(F)cc2)c1=O` [Embodiment 4], in test [1], the “Tumor Inhibition Rate (%)” value came out at 26%. Further, the 50% inhibitory concentration (IC50) on c-Met kinase was under 10 nM; in test [2] it was 100 to 500 nM.
For `COc1cc2c(Oc3ccc(NC(=O)c4cc5ncsc5n(-c5ccc(F)cc5)c4=O)cc3F)ccnc2cc1OCCCN1CCOCC1` [Embodiment 5], in test [1], the “Tumor Inhibition Rate (%)” value is recorded as 74%. For the same molecule, the IC50 is under 10 nM at c-Met kinase and under 100 nM in test [2].
For the molecule `Cn1cnc(-c2cc3nccc(Oc4ccc(NC(=O)c5cc6ncsc6n(-c6ccc(F)cc6)c5=O)cc4F)c3s2)c1` [Embodiment 6], the results for the concentration for half-maximal inhibition (IC50) (on c-Met kinase; in test [2]) were 10 to 100 nM and 100 to 500 nM, respectively.
In the case of `CCn1cnc(-c2cc3nccc(Oc4ccc(NC(=O)c5cc6ncsc6n(-c6ccc(F)cc6)c5=O)cc4F)c3s2)c1` [Embodiment 7], the figures for the IC50 (on c-Met kinase; in test [2] (Homo sapiens)) were 10 to 100 nM and 100 to 500 nM, respectively.
For `Cc1n[nH]c2nccc(Oc3ccc(NC(=O)c4cc5ncsc5n(-c5ccc(F)cc5)c4=O)cc3F)c12` [Embodiment 8] the same measures were 10 to 100 nM and 500 to 5000 nM.
For `O=C(Nc1ccc(Oc2ccnc(NC(=O)N3CCCC3)c2)c(F)c1)c1cc2ncsc2n(-c2ccc(F)cc2)c1=O` [Embodiment 9], the values for the IC50 (at c-Met kinase; in test [2]) were under 10 nM and 100 to 500 nM, respectively.
For `CN1CCN(C(=O)Nc2cc(Oc3ccc(NC(=O)c4cc5ncsc5n(-c5ccc(F)cc5)c4=O)cc3F)ccn2)CC1` [Embodiment 10], the IC50 was 100 to 1000 nM on c-Met kinase and under 100 nM in test [2] (Homo sapiens).
On to `O=C(Nc1ccc(Oc2ccnc(NC(=O)N3CCC(O)CC3)c2)c(F)c1)c1cc2ncsc2n(-c2ccc(F)cc2)c1=O` [Embodiment 12], for which the results for the IC50 (on c-Met kinase; in test [2] (Homo sapiens)) were 10 to 100 nM and 100 to 500 nM, respectively.
With `CN1CCN(C(=O)Nc2nccc(Oc3ccc(NC(=O)c4cc5ncsc5n(-c5ccc(F)cc5)c4=O)cc3F)c2Cl)CC1` [Embodiment 16], the IC50 at c-Met kinase fell in the range of 100 to 1000 nM; in test [2] (Homo sapiens) it was 100 to 500 nM.
For `O=C(Nc1ccc(Oc2ccnc(NC(=O)N3CCOCC3)c2Cl)c(F)c1)c1cc2ncsc2n(-c2ccc(F)cc2)c1=O` [Embodiment 17] the same measures were under 10 nM and 100 to 500 nM.
For `Nc1cc(Oc2ccc(NC(=O)c3cc4ncsc4n(-c4ccccc4CCO)c3=O)cc2F)ccn1` [Embodiment 18], the results for the IC50 (at c-Met kinase; in test [2] (Homo sapiens)) were 100 to 1000 nM and 500 to 5000 nM, respectively.
For `COc1ccc2c(Oc3ccc(NC(=O)c4cc5ncsc5n(-c5ccccc5CCO)c4=O)cc3F)ccnc2c1` [Embodiment 20] the same measures were 100 to 1000 nM and under 100 nM.
With `O=C(Nc1ccc(Oc2ccnc3[nH]ccc23)c(F)c1)c1cc2ncsc2n(-c2ccccc2CCO)c1=O` [Embodiment 21], the IC50 on c-Met kinase is 10 to 100 nM; in test [2] (Homo sapiens) it was under 100 nM.
In the case of `COc1cc2c(Oc3ccc(NC(=O)c4cc5ncsc5n(-c5ccccc5CCO)c4=O)cc3F)ccnc2cc1OCCCN1CCOCC1` [Embodiment 22], the values for the IC50 (on c-Met kinase; in test [2] (Homo sapiens)) were over 1000 nM and 500 to 5000 nM, respectively.
`CN(C)c1nc2cc(C(=O)Nc3ccc(Oc4ccnc(N)c4Cl)c(F)c3)c(=O)n(-c3ccc(F)cc3)c2s1` [Embodiment 23]: the IC50 was 10 to 100 nM on c-Met kinase and 100 to 500 nM in test [2] (Homo sapiens).
The matching figures for `CN(C)c1nc2cc(C(=O)Nc3ccc(Oc4ccnc(N)c4)c(F)c3)c(=O)n(-c3ccc(F)cc3)c2s1` [Embodiment 24]: under 10 nM and 100 to 500 nM.
Take `COc1ccc2c(Oc3ccc(NC(=O)c4cc5nc(N(C)C)sc5n(-c5ccc(F)cc5)c4=O)cc3F)ccnc2c1` [Embodiment 25]: the IC50 on c-Met kinase lay within 100 to 1000 nM; in test [2] (Homo sapiens) it was 500 to 5000 nM.
The matching figures for `CN(C)c1nc2cc(C(=O)Nc3ccc(Oc4ccnc5[nH]ccc45)c(F)c3)c(=O)n(-c3ccc(F)cc3)c2s1` [Embodiment 26]: 10 to 100 nM and 100 to 500 nM.
For `Cn1ncc2cc(C(=O)Nc3ccc(Oc4ccnc(N)c4)c(F)c3)c(=O)n(-c3ccc(F)cc3)c21` [Embodiment 28] the same measures were 100 to 1000 nM and 500 to 5000 nM.
In the case of `Cn1ncc2cc(C(=O)Nc3ccc(Oc4ccnc(N)c4Cl)c(F)c3)c(=O)n(-c3ccc(F)cc3)c21` [Embodiment 29], the IC50 was under 10 nM at c-Met kinase and under 100 nM in test [2] (Homo sapiens).
The matching figures for `Cn1ncc2cc(C(=O)Nc3ccc(Oc4ccnc5[nH]ccc45)c(F)c3)c(=O)n(-c3ccc(F)cc3)c21` [Embodiment 31]: 10 to 100 nM and 100 to 500 nM.
The matching figures for `COc1cc2c(Oc3ccc(NC(=O)c4cc5cnn(C)c5n(-c5ccc(F)cc5)c4=O)cc3F)ccnc2cc1OCCCN1CCOCC1` [Embodiment 32]: 100 to 1000 nM and 100 to 500 nM.
The matching figures for `Cn1cnc2cc(C(=O)Nc3ccc(Oc4ccnc5[nH]ccc45)c(F)c3)c(=O)n(-c3ccc(F)cc3)c21` [Embodiment 36]: 10 to 100 nM and 500 to 5000 nM.
For the molecule `COc1cc2c(Oc3ccc(NC(=O)c4cc5ncn(C)c5n(-c5ccc(F)cc5)c4=O)cc3F)ccnc2cc1OCCCN1CCOCC1` [Embodiment 37], the values for the IC50 (at c-Met kinase; in test [2] (Homo sapiens)) were under 10 nM and 100 to 500 nM, respectively.
The matching figures for `CN1CCOc2cc(C(=O)Nc3ccc(Oc4ccnc(N)c4Cl)c(F)c3)c(=O)n(-c3ccc(F)cc3)c21` [Embodiment 38]: 100 to 1000 nM and 500 to 5000 nM.
Turning to `CCOc1c(C(=O)Nc2ccc(Oc3ccnc4[nH]ccc34)c(F)c2)c(=O)n(-c2ccc(F)cc2)c2scnc12` [Embodiment 51], the IC50 was in the range of 100 to 1000 nM at c-Met kinase and 100 to 500 nM in test [2].
